The subject of data set [1] is S. Mutans UA159. The experiment in a line: In vitro inhibition of S. Mutans biofilm growth on HA discs. Type of data set: cell-based, Streptococcus Mutans. The note with it: 48 hours incubation, compared to controls, FIG. 3. As to the method:
S. Mutans UA159 was used in this study. S. Mutans were stored frozen at −80° C. A fresh culture was prepared before each experiment. A single colony of S. Mutans was inoculated into 3 mL of THYE (Todd-Hewitt Yeast Extract) medium and allow to growth statically overnight at 37° C. with 5% CO2. The overnight culture was diluted to a density of 5×10^4 CFU/ml with chemically defined biofilm media (CDM) (Biswas et al. (2007) J. Bacteriol., 189:6521-6531).
Autoclaved HA discs (7 mm×1.8 mm) were incubated with different micelle solutions, a farnesol solution in ethanol, or CDM in a 24-well plate for 1 hour to achieve maximum loading. The discs were then removed from the wells and vortex washed twice with saline for 10 seconds. The discs were subsequently washed with culture media to remove unbounded micelle. For the farnesol ethanol solution group, discs were washed twice with ethanol and then washed with saline. The HA discs were then transferred to 1 mL of diluted S. Mutans, and cultured statically for 48 hours to allow biofilm growth at 37° C. with 5% CO2.
On day three post bacteria inoculation, the HA discs were dip-washed 3 times with THYE media to remove loosely attached bacteria and then placed in 1 mL of THYE media. The surfaces of HA discs were gently scraped with a sterile spatula to harvest adherent cells. […]

The conditions of data set [2]: Hornby et al. (2001); cited from earlier work.
Data set [3] in a line: Binding potential and rate of bone-targeting micelles on hydroxyapatite (HA). The procedure:
The solvent was evaporated in vacuum to yield a polymeric film on the wall of the flask. The thin polymeric film formed was then hydrated with a 10 mM phosphate buffered saline solution (PBS, pH 7.4) at 50° C. to set the micelles. The micelles were prepared as the method mentioned above for bone-targeting micelles: 0.9% […], 0.1% ALN-[…], 0.02% RB-[…]; for controls: 1% […], 0.02% RB-[…]). […] The mixtures were allowed to be gently agitated for 1, 5, 10, or 30 minutes at room temperature. […] The spectra of the supernatant was recorded on a UV-Visible spectrophotometer and compared with that of the initial micelle solution. Micelle containing RB-[…] but no ALN-[…] and RB were used as controls in this experiment.

Values after ≈ are worked out from the molar mass of the structure shown.

Here are results for three molecules from patent publication US20110171144A1, “Functional Micelles for Hard Tissue Targeted Delivery of Chemicals” (priority 2008, published 2011).

Consider `CC(C)=CCCC(C)=CCCC(C)=CCO` [farnesol, 3,7,11-trimethyl-2,6,10-dodecatrien-1-ol], for which, in data set [1], the “inhibition of S. Mutans biofilm formation on HA discs” value is listed as “did not show inhibition”. In data set [2], the water solubility is 1200 µM (≈ 267 µg/mL). For the molecule `CCN(CC)c1ccc2c(-c3ccccc3C(=O)O)c3ccc(=[N+](CC)CC)cc-3oc2c1.[Cl-]` [RB, Rhodamine B], the “binding to HA (in words)” value in data set [3] (30 minutes incubation, FIG. 4A) was “slightly bound”. In the case of “Pluronic® 123-alendronate conjugate [ALN-P123]”, the “bound to HA” value in data set [3] (10 minutes incubation, FIG. 4B) was determined as 45%. In data set [3] (30 minutes incubation), the “bound to HA (ultimate binding equilibrium)” value is reported as 55%.
